Results on 1 substance are retold here after patent publication US11401306B2, “HPV16 non HLA-restricted t-cell vaccines, compositions and methods of use thereof” (priority 2016, dated 2022).

Holding throughout (assay type): in vivo
The subject of assay [1] is HPV-specific CD8+ T-cell induction (splenocytes). Put plainly: ELISPOT in normal C57/B6 mice, peptide with other cationic lipids. As to conditions: stimulated with RAHYNIVTF (SEQ ID NO: 1). The protocol: To determine if the identified long HPV16 peptides are compatible with other cationic lipids besides DOTAP, the peptide corresponding to SEQ ID NO: 26 was used as the model peptide in combination with two other cationic lipids DOTMA and DOEPC. To evaluate the ability of the peptides to effectively undergo processing and presentation, in the presence of both cationic lipids, an ELISPOT study was conducted using normal C57/B6 mice. ELISPOT studies were performed as described above and utilized to determine effective CD8+ T-cell induction.
In formulation 1, 1.35 mg/mL of DOTMA was mixed 1:1 v/v with 0.5 mg/mL of the peptide corresponding to SEQ ID NO: 26.
In formulation 2, 1.67 mg/mL of DOEPC was missed 1:1 v/v with 0.5 mg/mL of the peptide corresponding to SEQ ID NO: 26.
For each formulation 4 mice were vaccinated on Day 0 and Day 7. On Day 14 the mice were scarified and the splenocytes utilized in the ELISPOT study.

The test system of assay [2] is TC-1 tumor. Put plainly: TC-1 tumor regression screening of peptides in C57/B6 mice. The conditions noted are these: TC-1 tumors in C57/B6 mice, vaccinated day 7, peptide alone or with cationic lipid. On the set-up: key: Positive: a positive T-cell response was a T-cell response that resulted in regression of the tumor. From the text:
(§1) Sequence selection was accomplished herein using both tumor regression studies in C57/B6 mice, and interferon-gamma ELISPOT studies in HLA-A2 humanized transgenic mice. […] In the HLA-A2 mouse model ELISPOT study, at least 20 spots per million splenocytes was regarded to be a positive response.
This example illustrates the evaluation or screening of several HPV16 E7 peptides in the TC-1 mouse tumor regression model for their effective processing and presentation of the key epitopes leading to HPV-specific T-cell induction and subsequent tumor regression.
In the tumor regression screening studies mice were implanted with 100,000 TC-1 cells on day 0. On day 7, once the tumors were well established the mice were vaccinated with the specific peptide sequences, either formulated alone or in combination with cationic lipids such as DOTMA, DOEPC or R-DOTAP to facilitate up-take and presentation. In these studies, the vaccine contained the selected peptide at a concentration of 0.1-3.0 mg/mL and cationic liposomes at a concentration of 0.2-3.0 mg/mL. In the cases where the peptide sequences were lipidated by attaching a palmitoyl chain, the peptides were simply mixed with the cationic liposomes prior to vaccination. In the case of the non-lipidated peptides, the liposomes were made and peptides encapsulated by traditional thin film liposome preparation methods (F Szoka, and D Papahadjopoulos, Comparative Properties and Methods of Preparation of Lipid Vesicles (Liposomes), Annual Review of Biophysics and Bioengineering, Vol. 9:467-508, 1980). Other methods well known to those skilled in the art may also have been used.
A sample tumor regression plot showing results for peptides corresponding to SEQ ID NO: 1 (blank square), SEQ ID NOS: 7, 8, 31 32 and 31 (solid black circle), SEQ ID NO: 7 (blank circle), and SEQ ID NO: 8 (solid black triangle) is shown in FIG. 3.

Assay [3] concerns HPV-specific T-cell response (splenocytes). The experiment in a line: IFN-g ELISPOT on splenocytes of vaccinated humanized HLA-A2 transgenic mice.
Description: as §1
This example highlights the approach to evaluating T-cell responses using ELISPOT studies in humanized HLA-A2 transgenic mice. In these studies, the vaccine contained the selected peptide at a concentration of 0.1-3.0 mg/mL and cationic liposomes when used, at a concentration of 0.2-3.0 mg/mL. Humanized HLA-A2 transgenic mice having components of the human immune system capable of recognizing human antigens were vaccinated on day 0 and day 7 with 100 uL of the vaccine. On day 14 the mice were sacrificed and HPV-specific immune response evaluated by interferon-gamma ELISPOT using standard approaches with the splecocytes from the mice (4-8 per group). The splenocytes were stimulated with the specified CD8+ T-cell epitope peptides or the long multi-epitope peptides specified in Table 2. The number of IFN-g spots per million cells is listed for the specified examples. […] The ability of the humanized transgenic mice to successfully generate a T-cell immune response (>20 spots) when stimulated with each of the long multi-epitope peptides as well as short single epitope peptides confirms that the selected peptides are effectively processed and presented to T-cells. In these studies, un-stimulated splenocytes and splenocytes stimulated with irrelevant peptides were both used together as negative controls in every assay. For the positive control in the assay ConA was used.
The present study was performed to evaluate the effect of chemical modification of select peptides on immunogenicity and their ability to be processed, presented and to prime human CD8+ HPV-specific T-cell responses. Peptides corresponding to SEQ ID NO: 23 and 25 contain cysteines which upon oxidation lead to the formation of dimers and other multimers. Two vaccine formulations were prepared containing peptides corresponding to SEQ ID NO: 23 and 25.
In Formulation A: Both peptides were monomeric with high purity confirmed by HPLC analysis. The vaccine contained 1.5-1.6 mg/mL of each peptide.
In Formulation B: Significant oxidation and multimer formation of both peptides was confirmed by HPLC analysis.
Both formulations were mixed 1:1 with 5.8 mg/mL of R-DOTAP prior to vaccination.
The immunogenicity of the peptides was compared as described in the above examples in 10 HLA-A2 mice per formulation by evaluating the ability to induce CD8+ T-cells. ELISPOT studies were performed as described above.

Turning to PalmKSS GQAEPDRAHYNIVTF [SEQ ID NO: 26], the “ELISPOT result Av spots/10^6 cells” value in assay [1] (formulated with DOEPC (formulation 2)) is 243 spots/10^6 cells; in assay [1] (formulated with DOTMA (formulation 1)) it was 988 spots/10^6 cells; in assay [3] (splenocytes stimulated with GQAEPDRAHYNIVTF (SEQ ID NO: 5)), 1,544 spots/10^6 cells; in assay [3] (splenocytes stimulated with RAHYNIVTF (SEQ ID NO: 1)), 1,552 spots/10^6 cells. Moreover, the “Immune Response, Method: tumor regression” value in assay [2] is “Positive tumor regression”. Also, the “Immune Response, Method: ELISPOT” value in assay [3] (HLA-A2 humanized transgenic mice, IFN-gamma ELISPOT) is recorded as “Positive, ELISPOT (at least 20 spots per million splenocytes was regarded to be a positive response)”.
